Reference: patent publication US12303518B2, “System for providing birth control” (The Population Council, Inc., priority 2019, dated 2025)
Read-outs that look alike come from different tables or passages of the source.

How the values were obtained:
[1] = test system: SHBG; test: Effect on serum concentrations of SHBG; conditions: in vivo
[2] = Recoverable SA and EE after storage; format: physicochemical; conditions: for amount recoverable from the vaginal system: 24 months of storage at 25° C. and 60% relative humidity
Protocol: This was quite surprising as a similar trend was not observed during long-term stability studies on the cores before assembly.
• Diluent: methanol/water 58/42 v/v • Dried NES and EE before weighing (100-105° C. 3 h) • EE stock solution: Dissolved 25.0 mg of EE and diluted to 250.0 mL with methanol (duplicates, EE1 and EE2) • NES stock solution: Dissolved 50.0 mg of NES and diluted to 100.0 mL with methanol (duplicates, NES1 and NES2) • Standard solutions: • S1: Diluted 5.0 mL of NES1 and 4.0 mL of EE1 to 50.0 mL with diluent • S2: Diluted 6.0 mL of NES2 and 5.0 mL of EE2 to 50.0 mL with diluent • S3: Diluted 8.0 mL of NES1 and 7.0 mL of EE1 to 50.0 mL with diluent • S4: Diluted 10.0 mL of NES2 and 9.0 mL of EE2 to 50.0 mL with diluent • System suitability solution (SST solution): Diluted 5.0 mL acetone+7.0 mL NES1+6.0 mL EE1 to 50.0 mL with diluent. Extraction Procedure: • Rings were cut into 8 pieces and each piece was divided lengthwise then transferred to an Erlenmeyer flask. • 140 mL of acetone (weight of flask was noted before and after acetone addition) was added to the flask. […] Liquid Chromatography Column • analytical column: Discovery C8, 5 μm, 150×4.6 mm (Supelco) • pre-column: Supelguard, Discovery C8, 5 μm, 20×4.0 mm (Supelco) • stationary phase: endcapped C8 (5 μm particle size) USP L7 • temperature: 30° C. • Mobile phase: methanol/water 58/42, isocratic elution • Flow rate: 1.2 mL/min • Detection (assay): NES UV 240 nm, EE UV 280 nm • Detection (identity): PDA (photodiode array detector) scanning 220-310 nm, NES 240 nm, EE 280 nm • Injection: 20 μL • Run time: 15 min • System suitability: SST solution • Area precision (n=5): RSD (%)≤2.0 • Peak tailing (T): 0.8≤T≤1.5 • Blank injections: No interfering peaks • Retention times: EE approximately 7 min and NES approximately 9 min • Results Assay: Report the average value of three different rings and express as mg EE/ring and mg NES/ring. • Results Content uniformity: Calculate the average value of ten different rings. […]

[3] = Drug-drug interaction study with vaginal miconazole formulations; format: in vivo, human; conditions: concurrent water-based vaginal miconazole cream
From the text: However, the use of either the 1 day or the 3-day oil-based miconazole suppository was associated with an overall increase in exposure up to 67% for EE and 32% for SA. Considering the potential long-term effect on vaginal system performance, concurrent use of oil-based vaginal suppositories should not occur with the system's use. If there is a need to treat a vaginal condition, water-based vaginal cream or oral therapy may be used concurrently with the vaginal system.

[4] = Pharmacokinetics of the vaginal system in 39 women over up to 13 product-use cycles; format: in vivo; set-up: concentration or dose not given beside the values; conditions: female, human, serum
Protocol: The pharmacokinetics (PK) of the vaginal system described herein were determined in 39 women who used the system for up to 13 product-use cycles. […] Over subsequent product-use cycles, the peak serum concentrations of SA and EE declined. Serum concentration-time profiles of SA and EE for product-pse cycles 1, 3, and 13 of system use are provided in FIG. 1 and FIG. 2 with PK parameters summarized in Table 8 and Table 9.

[5] = in vivo; cited from earlier work
[6] = PK study in females with BMI<25 vs BMI>25 kg/m^2; format: in vivo, human; conditions: 18 females BMI<25 vs 21 females BMI>25 kg/m^2
From the text: The vaginal system described herein has not been adequately evaluated in females with a body mass index of >29 kg/m2. […] Higher body weight associates with lower systemic exposure of SA and EE. In a PK study conducted in 18 females with BMI<25 (16.89-24.34) kg/m^2 and 21 females with BMI>25 (25.15-37.46) kg/m^2, up to 16% and 33% decreases in the systemic exposure (AUC0-21day) of SA and EE, respectively, were observed between the two BMI groups.

[7] = Solubility in solvents (descriptive); format: physicochemical; conditions: USP classification
[8] = test system: mouse; test: In vivo mouse micronucleus test
[9] = test system: rats; test: Return to fertility study in rats with subdermal implants; format: in vivo, rat; conditions: 7 weeks after cessation of treatment
Protocol: A return to fertility study was conducted with segesterone acetate in rats, using subdermal implants releasing a dose approximately 25 times the anticipated daily vaginal human dose (based on body surface area).

[10] = target: T1, sex hormone-binding globulin (SHBG) (Homo sapiens, UniProt P04278); test: Binding to sex hormone-binding globulin
T1 sequence (P04278 30-402): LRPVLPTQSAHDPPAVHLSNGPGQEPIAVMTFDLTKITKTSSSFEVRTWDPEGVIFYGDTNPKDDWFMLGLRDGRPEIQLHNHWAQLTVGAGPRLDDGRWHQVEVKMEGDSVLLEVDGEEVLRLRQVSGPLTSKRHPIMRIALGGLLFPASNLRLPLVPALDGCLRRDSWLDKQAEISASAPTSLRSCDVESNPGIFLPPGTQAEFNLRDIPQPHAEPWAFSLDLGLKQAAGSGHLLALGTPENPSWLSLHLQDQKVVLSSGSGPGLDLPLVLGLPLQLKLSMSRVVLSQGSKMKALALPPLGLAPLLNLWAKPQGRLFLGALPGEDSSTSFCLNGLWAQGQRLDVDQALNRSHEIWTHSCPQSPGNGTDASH

[11] = test system: Chinese hamster ovary cells; test: Chromosomal aberration assay; format: cell-based
[12] = test system: Salmonella; test: Ames/Salmonella reverse mutation assay; format: cell-based
[13] = test system: CYP enzymes; test: In vitro CYP inhibition/induction studies; format: in vitro ADME; conditions: therapeutic dose

SMILES: C#C[C@]1(O)CC[C@H]2[C@@H]3CCc4cc(O)ccc4[C@H]3CC[C@@]21C [EE, 19-nor-17α-pregna-1,3,5(10)-trien-20-yne-3,17-diol]
- effect on serum concentrations of SHBG [1]: induces an increase in the serum concentrations of SHBG
- amount recoverable from the vaginal system [2]: decreased in a time-dependent manner
- amount recoverable from the core by extraction ([2]; cores before assembly, extended storage): full amount of EE was found to be recoverable
- change in exposure from the vaginal system [3]: no change in exposure
- AUC(0-t) ([4]; Cycle 1, mean (SD), read-out: AUC0−1 day): 2.1 ng·h/mL
- AUC(0-t) ([4]; Cycle 1, mean (SD), read-out: AUC0−21day): 22.2 ng·h/mL
- AUC(0-t) ([4]; Cycle 3, mean (SD), read-out: AUC0−1 day): 0.9 ng·h/mL
- AUC(0-t) ([4]; Cycle 3, mean (SD), read-out: AUC0−21day): 14.7 ng·h/mL
- AUC(0-t) ([4]; Cycle 13, mean (SD), read-out: AUC0−1 day): 0.7 ng·h/mL
- AUC(0-t) ([4]; Cycle 13, mean (SD), read-out: AUC0−21day): 9.6 ng·h/mL
- excretion route [5]: excreted in the urine and feces as glucuronide and sulfate conjugates
- primary metabolic route [5]: primarily metabolized by aromatic hydroxylation
- decrease in systemic exposure (AUC0-21day) between the two BMI groups [6]: ≤ 33%

SMILES: C=C1C[C@H]2[C@@H]3CCC4=CC(=O)CC[C@@H]4[C@H]3CC[C@]2(C)[C@@]1(OC(C)=O)C(C)=O [SA, 16-methylene-17α-acetoxy-19-nor-pregn-4-ene-3,20-dione]
- solubility ([7]; acetone): freely soluble
- solubility ([7]; ethyl acetate): soluble
- solubility ([7]; methanol): soluble
- solubility ([7]; n-hexane): slightly soluble
- mutagenicity/clastogenicity [8]: neither mutagenic nor clastogenic
- effects on ovulation or litter parameters [9]: no adverse effects on ovulation or resulting litter parameters
- binding affinity for sex hormone-binding globulin (SHBG) [10]: negligible binding affinity
- mutagenicity/clastogenicity [11]: neither mutagenic nor clastogenic
- mutagenicity/clastogenicity [12]: neither mutagenic nor clastogenic
- amount recoverable from the vaginal system [2]: remained essentially constant
- change in exposure from the vaginal system [3]: no change in exposure
- CYP enzyme inhibition or induction [13]: unlikely to inhibit or induce CYP enzymes
- decrease in systemic exposure (AUC0-21day) between the two BMI groups [6]: up to 16%
